Test system: MV-4-11 cells
Test: Gene expression microarray analysis (Affymetrix PrimeView) and GSEA
Type: cell-based, human
Design: RFU PODN (11730768_x_at) / Fold change /veh PODN (11730768_x_at) / RFU LINC00158 (11744669_a_at) / Fold change /veh LINC00158 (11744669_a_at) / RFU DUSP10 (11751237_a_at) / Fold change /veh DUSP10 (11751237_a_at) / RFU ID3 (11757404_x_at) / Fold change /veh ID3 (11757404_x_at) / RFU PLEKHG5 (11737974_s_at) / Fold change /veh PLEKHG5 (11737974_s_at) / RFU LRRC4B (11730491_at) / Fold change /veh LRRC4B (11730491_at) / RFU GIMAP4 (11747438_a_at) / Fold change /veh GIMAP4 (11747438_a_at) / RFU KRT8 (11758183_x_at) / Fold change /veh KRT8 (11758183_x_at) / RFU CNN1 (11734310_a_at) / Fold change /veh CNN1 (11734310_a_at) / RFU VPS37D (11726825_at) / Fold change /veh VPS37D (11726825_at) / RFU C10orf10 (11716522_x_at) / Fold change /veh C10orf10 (11716522_x_at) / RFU KIR2DL2 /// KIR2DL4 /// KIR2DL5A /// KIR2DL5B /// KIR2DS1 /// KIR2DS2 /// KIR2DS3 /// KIR2DS4 /// KIR3DL3 /// KIR3DL3 /// KIR3DS1 (11738374_at) / Fold change /veh KIR2DL2 /// KIR2DL4 /// KIR2DL5A /// KIR2DL5B /// KIR2DS1 /// KIR2DS2 /// KIR2DS3 /// KIR2DS4 /// KIR3DL3 /// KIR3DL3 /// KIR3DS1 (11738374_at) / RFU C1QL1 (11718748_at) / Fold change /veh C1QL1 (11718748_at) / RFU TMPRSS4 (11747572_a_at) / Fold change /veh TMPRSS4 (11747572_a_at) / RFU HAMP (11756126_x_at) / Fold change /veh HAMP (11756126_x_at) / RFU RNFT2 (11725882_a_at) / Fold change /veh RNFT2 (11725882_a_at) / RFU NR4A2 (11747474_a_at) / Fold change /veh NR4A2 (11747474_a_at) / RFU ABCC12 (11746883_a_at) / Fold change /veh ABCC12 (11746883_a_at) / RFU TMEM136 (11760407_x_at) / Fold change /veh TMEM136 (11760407_x_at) / RFU CLDN22 /// WWC2 (11732394_at) / Fold change /veh CLDN22 /// WWC2 (11732394_at) / RFU HLA-DPB1 (11760878_x_at) / Fold change /veh HLA-DPB1 (11760878_x_at) / RFU SPINT1 (11716480_a_at) / Fold change /veh SPINT1 (11716480_a_at) / RFU GAP43 (11754022_s_at) / Fold change /veh GAP43 (11754022_s_at) / RFU A4GNT (11735810_at) / Fold change /veh A4GNT (11735810_at) / RFU PRB3 (11715151_x_at) / Fold change /veh PRB3 (11715151_x_at) / RFU TUBB4B (11761932_at) / Fold change /veh TUBB4B (11761932_at) / RFU CAPN14 (11732068_a_at) / Fold change /veh CAPN14 (11732068_a_at) / RFU TMCC2 (11721928_a_at) / Fold change /veh TMCC2 (11721928_a_at) / RFU IRGQ (11745062_a_at) / Fold change /veh IRGQ (11745062_a_at) / RFU FAM174B (11720279_a_at) / Fold change /veh FAM174B (11720279_a_at) / RFU TMPRSS4 (11748680_a_at) / Fold change /veh TMPRSS4 (11748680_a_at) / RFU FAM212B (11763350_a_at) / Fold change /veh FAM212B (11763350_a_at) / RFU PLEKHG5 (11743358_a_at) / Fold change /veh PLEKHG5 (11743358_a_at) / RFU ZSCAN30 (11745921_a_at) / Fold change /veh ZSCAN30 (11745921_a_at) / RFU CMKLR1 (11741424_a_at) / Fold change /veh CMKLR1 (11741424_a_at) / RFU LOC101060620 /// MAPK8IP1 (11723275_at) / Fold change /veh LOC101060620 /// MAPK8IP1 (11723275_at) / RFU SPTSSB (11747773_x_at) / Fold change /veh SPTSSB (11747773_x_at) / RFU PRSS12 (11739890_at) / Fold change /veh PRSS12 (11739890_at) / RFU BIN1 (11741810_x_at) / Fold change /veh BIN1 (11741810_x_at) / RFU WNT11 (11732464_a_at) / Fold change /veh WNT11 (11732464_a_at) / RFU C10orf10 (11716521_a_at) / Fold change /veh C10orf10 (11716521_a_at) / RFU C5orf56 (11738089_at) / Fold change /veh C5orf56 (11738089_at) / RFU CYB561 (11721691_x_at) / Fold change /veh CYB561 (11721691_x_at) / RFU ANKRD19P (11752326_a_at) / Fold change /veh ANKRD19P (11752326_a_at) / RFU OR2T12 /// OR2T33 /// OR2T8 (11738714_s_at) / Fold change /veh OR2T12 /// OR2T33 /// OR2T8 (11738714_s_at) / RFU VCAN (11748164_a_at) / Fold change /veh VCAN (11748164_a_at) / RFU JSRP1 (11732532_at) / Fold change /veh JSRP1 (11732532_at) / RFU KRTAP10-11 (11738290_x_at) / Fold change /veh KRTAP10-11 (11738290_x_at) / RFU MYO3A (11730013_a_at) / Fold change /veh MYO3A (11730013_a_at) / RFU EBF3 (11725865_a_at) / Fold change /veh EBF3 (11725865_a_at) / RFU CAMK2N1 (11719241_x_at) / Fold change /veh CAMK2N1 (11719241_x_at) / RFU C5orf56 (11738088_a_at) / Fold change /veh C5orf56 (11738088_a_at) / RFU OLFML3 (11715873_a_at) / Fold change /veh OLFML3 (11715873_a_at) / RFU LOC100653217 /// NTM (11731650_a_at) / Fold change /veh LOC100653217 /// NTM (11731650_a_at) / RFU MAPK11 (11762145_a_at) / Fold change /veh MAPK11 (11762145_a_at) / RFU FIZ1 (11724087_x_at) / Fold change /veh FIZ1 (11724087_x_at) / RFU OASL (11726364_x_at) / Fold change /veh OASL (11726364_x_at) / RFU SOX15 (11748057_x_at) / Fold change /veh SOX15 (11748057_x_at) / RFU CD79A (11719716_a_at) / Fold change /veh CD79A (11719716_a_at) / RFU HIST1H1D (11736915_at) / Fold change /veh HIST1H1D (11736915_at) / RFU CASKIN2 (11723855_a_at) / Fold change /veh CASKIN2 (11723855_a_at) / RFU LOC730098 (11760151_x_at) / Fold change /veh LOC730098 (11760151_x_at) / RFU OR4N2 (11742367_at) / Fold change /veh OR4N2 (11742367_at) / RFU PRRT2 (11749266_a_at) / Fold change /veh PRRT2 (11749266_a_at) / RFU SNX32 (11753110_a_at) / Fold change /veh SNX32 (11753110_a_at) / RFU CDHR5 (11726645_a_at) / Fold change /veh CDHR5 (11726645_a_at) / RFU RCAN1 (11760418_a_at) / Fold change /veh RCAN1 (11760418_a_at) / RFU FAM167A (11723789_a_at) / Fold change /veh FAM167A (11723789_a_at) / RFU FAM26E (11764081_at) / Fold change /veh FAM26E (11764081_at) / RFU ISYNA1 (11749810_s_at) / Fold change /veh ISYNA1 (11749810_s_at) / RFU ACY1 (11761880_at) / Fold change /veh ACY1 (11761880_at) / RFU 11764098_at / Fold change /veh 11764098_at / RFU SAMD14 (11745864_x_at) / Fold change /veh SAMD14 (11745864_x_at) / RFU NPB (11741838_a_at) / Fold change /veh NPB (11741838_a_at) / RFU TMPRSS6 (11731388_a_at) / Fold change /veh TMPRSS6 (11731388_a_at) / RFU KRTAP10-2 (11738614_at) / Fold change /veh KRTAP10-2 (11738614_at) / RFU ARHGAP8 /// PRR5-ARHGAP8 (11727945_x_at) / Fold change /veh ARHGAP8 /// PRR5-ARHGAP8 (11727945_x_at) / RFU KRTAP5-7 /// NADSYN1 (11734609_at) / Fold change /veh KRTAP5-7 /// NADSYN1 (11734609_at) / RFU RASL12 (11751679_a_at) / Fold change /veh RASL12 (11751679_a_at) / RFU CDKN2B (11736163_a_at) / Fold change /veh CDKN2B (11736163_a_at) / RFU PRF1 (11729649_at) / Fold change /veh PRF1 (11729649_at) / RFU, ZNF638 /// ZNF638-IT1 / Fold change vs veh, ZNF638 /// ZNF638-IT1 / RFU, PANK3 / Fold change vs veh, PANK3 / RFU, SH3YL1 / Fold change vs veh, SH3YL1 / RFU, ZEB2 / Fold change vs veh, ZEB2 / RFU, NRIP1 / Fold change vs veh, NRIP1 / RFU, PTTG1IP / Fold change vs veh, PTTG1IP / RFU, CAPN2 / Fold change vs veh, CAPN2 / RFU, MED14 / Fold change vs veh, MED14 / RFU, SNORA58 / Fold change vs veh, SNORA58 / RFU, C1orf63 / Fold change vs veh, C1orf63 / RFU, LRRFIP1 / Fold change vs veh, LRRFIP1 / RFU, NDUFAF7 / Fold change vs veh, NDUFAF7 / RFU, SLC12A2 / Fold change vs veh, SLC12A2 / RFU, IBTK / Fold change vs veh, IBTK / RFU, ESF1 / Fold change vs veh, ESF1 / Fold change vs veh, TMEM50B / RFU, TAOK1 / Fold change vs veh, TAOK1 / RFU, ACBD3 / Fold change vs veh, ACBD3 / RFU, TMA16 / Fold change vs veh, TMA16 / RFU, RWDD3 / Fold change vs veh, RWDD3 / RFU, BCAT1 / Fold change vs veh, BCAT1 / RFU, EDEM3 / Fold change vs veh, EDEM3 / RFU, TMEM33 / Fold change vs veh, TMEM33 / RFU, WDR75 / Fold change vs veh, WDR75 / RFU, AHCTF1 / Fold change vs veh, AHCTF1 / RFU, TFRC / Fold change vs veh, TFRC / RFU, ZDHHC17 / Fold change vs veh, ZDHHC17 / RFU, NOM1 / Fold change vs veh, NOM1 / RFU, ARL8B / Fold change vs veh, ARL8B / RFU, ZBTB11 / Fold change vs veh, ZBTB11 / RFU, TAMM41 / Fold change vs veh, TAMM41 / RFU, KIAA1704 /// LOC100996395 / Fold change vs veh, KIAA1704 /// LOC100996395 / RFU, ING1 / Fold change vs veh, ING1 / RFU, TRMT61B / Fold change vs veh, TRMT61B / RFU, FUBP3 / Fold change vs veh, FUBP3 / RFU, TP53 / Fold change vs veh, TP53 / RFU, TNKS2 / Fold change vs veh, TNKS2 / RFU, ZFP14 / Fold change vs veh, ZFP14 / RFU, ACTR2 / Fold change vs veh, ACTR2 / RFU, PPP3R1 / Fold change vs veh, PPP3R1 / RFU, PIK3R1 / Fold change vs veh, PIK3R1 / RFU, HNRNPA1 / Fold change vs veh, HNRNPA1 / RFU, RNF170 / Fold change vs veh, RNF170 / RFU, ZNF28 / Fold change vs veh, ZNF28 / RFU, RNGTT / Fold change vs veh, RNGTT / RFU, OGT / Fold change vs veh, OGT / RFU, BRD1 / Fold change vs veh, BRD1 / RFU, MARS / Fold change vs veh, MARS / RFU, ZNF655 / Fold change vs veh, ZNF655 / RFU, FAHD1 / Fold change vs veh, FAHD1 / RFU, BDP1 / Fold change vs veh, BDP1 / RFU, LRRCC1 / Fold change vs veh, LRRCC1 / RFU, ARID1A / Fold change vs veh, ARID1A / RFU, ZNF146 / Fold change vs veh, ZNF146 / RFU, ZNF330 / Fold change vs veh, ZNF330 / RFU, GPN3 / Fold change vs veh, GPN3 / RFU, C9orf123 / Fold change vs veh, C9orf123 / RFU, N4BP2L2 / Fold change vs veh, N4BP2L2 / RFU, ARFIP1 / Fold change vs veh, ARFIP1 / RFU, FAM179B / Fold change vs veh, FAM179B / RFU, BCL10 / Fold change vs veh, BCL10 / RFU, UHRF1BP1L / Fold change vs veh, UHRF1BP1L / RFU, BET1 / Fold change vs veh, BET1 / RFU, CNOT2 / Fold change vs veh, CNOT2 / RFU, ZNF268 / Fold change vs veh, ZNF268 / Fold change vs veh, ZNF507 / RFU, DGCR2 / Fold change vs veh, DGCR2 / RFU, WDSUB1 / Fold change vs veh, WDSUB1 / Fold change vs veh, HSP90B1 /// MIR3652 / RFU, ADSS / Fold change vs veh, ADSS / RFU, GK / Fold change vs veh, GK / RFU, ZNF148 / Fold change vs veh, ZNF148 / RFU, TAF9 / Fold change vs veh, TAF9 / RFU, SLC1A5 / Fold change vs veh, SLC1A5 / RFU, SLMO2 / Fold change vs veh, SLMO2 / RFU, ABCC4 / Fold change vs veh, ABCC4 / RFU, LOC101060439 /// RAP1B / Fold change vs veh, LOC101060439 /// RAP1B / RFU, RFX7 / Fold change vs veh, RFX7 / RFU, GTPBP10 / Fold change vs veh, GTPBP10 / RFU, CNEP1R1 / Fold change vs veh, CNEP1R1 / RFU, BIVM-ERCC5 /// ERCC5 / Fold change vs veh, BIVM-ERCC5 /// ERCC5 / RFU, ILF3 / Fold change vs veh, ILF3 / RFU 11762660_at / Fold change /veh 11762660_at / RFU VCAN (11757783_s_at) / Fold change /veh VCAN (11757783_s_at) / RFU DDX43 (11728927_at) / Fold change /veh DDX43 (11728927_at) / RFU KRT8 (11758188_x_at) / Fold change /veh KRT8 (11758188_x_at) / RFU NKD1 (11759106_at) / Fold change /veh NKD1 (11759106_at) / RFU SRD5A1 (11742802_a_at) / Fold change /veh SRD5A1 (11742802_a_at) / RFU TPSAB1 /// TPSB2 (11721975_s_at) / Fold change /veh TPSAB1 /// TPSB2 (11721975_s_at) / RFU GSTM3 (11746129_a_at) / Fold change /veh GSTM3 (11746129_a_at) / RFU IL23R (11737362_x_at) / Fold change /veh IL23R (11737362_x_at) / RFU TMEM51 (11727254_a_at) / Fold change /veh TMEM51 (11727254_a_at) / RFU PIWIL2 (11732686_x_at) / Fold change /veh PIWIL2 (11732686_x_at) / RFU ORM1 (11744905_x_at) / Fold change /veh ORM1 (11744905_x_at) / RFU CCDC152 (11743942_at) / Fold change /veh CCDC152 (11743942_at) / RFU ECM1 (11717891_a_at) / Fold change /veh ECM1 (11717891_a_at) / RFU IL23R (11748794_a_at) / Fold change /veh IL23R (11748794_a_at) / RFU TNFAIP8L3 (11732012_x_at) / Fold change /veh TNFAIP8L3 (11732012_x_at) / RFU MBOAT4 (11741988_at) / Fold change /veh MBOAT4 (11741988_at) / RFU 11764193_at / Fold change /veh 11764193_at / RFU TMEM53 (11763286_at) / Fold change /veh TMEM53 (11763286_at) / RFU MAGEB2 (11727129_at) / Fold change /veh MAGEB2 (11727129_at) / RFU TMEM200A (11744735_a_at) / Fold change /veh TMEM200A (11744735_a_at) / RFU CCDC152 (11751479_a_at) / Fold change /veh CCDC152 (11751479_a_at) / RFU FAM211A (11726209_a_at) / Fold change /veh FAM211A (11726209_a_at) / RFU RGS16 (11746705_a_at) / Fold change /veh RGS16 (11746705_a_at) / RFU VCAN (11755009_s_at) / Fold change /veh VCAN (11755009_s_at) / RFU RHOB (11743442_s_at) / Fold change /veh RHOB (11743442_s_at) / RFU RGS16 (11720943_a_at) / Fold change /veh RGS16 (11720943_a_at) / RFU RGS16 (11720944_at) / Fold change /veh RGS16 (11720944_at) / RFU, VPS4B / Fold change vs veh, VPS4B / RFU, CREB1 / Fold change vs veh, CREB1 / RFU, DNAJC13 / Fold change vs veh, DNAJC13 / RFU, GNAQ / Fold change vs veh, GNAQ / RFU, CDK5R1 / Fold change vs veh, CDK5R1 / RFU, ZRANB3 / Fold change vs veh, ZRANB3 / RFU, CUL4A / Fold change vs veh, CUL4A / RFU, CCNY / Fold change vs veh, CCNY / RFU, UFL1 / Fold change vs veh, UFL1 / RFU, COG3 / Fold change vs veh, COG3 / RFU, DIAPH2 / Fold change vs veh, DIAPH2 / RFU, SKA2 / Fold change vs veh, SKA2 / RFU, AFF3 / Fold change vs veh, AFF3 / RFU, LMF1 / Fold change vs veh, LMF1 / RFU, IPO11 / Fold change vs veh, IPO11 / RFU, DFFB / Fold change vs veh, DFFB / RFU, FOXP1 / Fold change vs veh, FOXP1 / RFU, CARD8 / Fold change vs veh, CARD8 / RFU, STRN3 / Fold change vs veh, STRN3 / RFU, ADK / Fold change vs veh, ADK / RFU, RASSF2 / Fold change vs veh, RASSF2 / RFU, WIPF1 / Fold change vs veh, WIPF1 / RFU, LARP1B / Fold change vs veh, LARP1B / RFU, RASA1 / Fold change vs veh, RASA1 / RFU, RB1 / Fold change vs veh, RB1 / RFU, PPFIA1 / Fold change vs veh, PPFIA1 / RFU, MAT2A / Fold change vs veh, MAT2A / RFU, CCT5 / Fold change vs veh, CCT5 / RFU, WDR92 / Fold change vs veh, WDR92 / RFU, CUX1 / Fold change vs veh, CUX1 / RFU, TTC7A / Fold change vs veh, TTC7A / RFU, TMEM135 / Fold change vs veh, TMEM135 / RFU, DEPTOR / Fold change vs veh, DEPTOR / RFU, CPM / Fold change vs veh, CPM / RFU, DNAJB6 / Fold change vs veh, DNAJB6 / RFU, CACNA2D3 / Fold change vs veh, CACNA2D3 / RFU, DTX4 / Fold change vs veh, DTX4 / RFU, TFCP2 / Fold change vs veh, TFCP2 / RFU, GMCL1 /// GMCL1P1 / Fold change vs veh, GMCL1 /// GMCL1P1 / RFU, AEBP2 / Fold change vs veh, AEBP2 / RFU, SNHG1 /// SNORD22 /// SNORD25 /// SNORD26 /// SNORD27 /// SNORD28 /// SNORD29 /// SNORD31 / Fold change vs veh, SNHG1 /// SNORD22 /// SNORD25 /// SNORD26 /// SNORD27 /// SNORD28 /// SNORD29 /// SNORD31 / Fold change (Aza/veh), C12orf56 (ProbeSet 11735607_a_at) / Fold change (ACY-1035/veh), C12orf56 (ProbeSet 11735607_a_at) / Fold change (Aza/veh), FGFR1OP (ProbeSet 11751329_s_at) / Fold change (ACY-1035/veh), FGFR1OP (ProbeSet 11751329_s_at) / Fold change (Aza/veh), VPS36 (ProbeSet 11739960_a_at) / Fold change (ACY-1035/veh), VPS36 (ProbeSet 11739960_a_at) / RFU SYPL1 (11715823_x_at) / Fold change /veh SYPL1 (11715823_x_at) / RFU IGFBP7 (11715501_s_at) / Fold change /veh IGFBP7 (11715501_s_at) / RFU REEP3 (11722064_at) / Fold change /veh REEP3 (11722064_at) / RFU IGLL1 (11728026_x_at) / Fold change /veh IGLL1 (11728026_x_at): dose or concentration left out as unconfirmed
Conditions: ProbeSet 11725885_a_at; LIST B

SMILES: Nc1ncn([C@@H]2O[C@H](CO)[C@@H](O)[C@H]2O)c(=O)n1 [azacitidine]
- Fold change vs veh, CNEP1R1: 0.86
